Data on two compounds can be found in PMC7434981, “Development of a Novel Positron Emission Tomography (PET) Radiotracer Targeting Bromodomain and Extra-Terminal Domain (BET) Family Proteins” (Frontiers in Molecular Biosciences, 2020).

Data set [1] has as its target BET BD1. Details: method as in Zhao et al., 2018. The settings on record: ref Zhao et al., 2018, cited from earlier work.
In data set [2] the test system is non-BET bromodomain-containing proteins. Details: method as in Zhao et al., 2018. The settings on record: ref Zhao et al., 2018; cited from earlier work.
Data set [3] in a line: Dynamic PET/CT imaging in mice, baseline uptake and biodistribution. It counts as in vivo, male Balb/c mice. The method, then: Following the successful radiosynthesis, we stepped forward to evaluate [^11C]1 as a potential BET PET radiotracer by PET imaging experiments in rodents. Dynamic PET imaging in male Balb/c mice was conducted following the injection of [^11C]1 via the tail vein at the dose of 3.7–7.4 Mbq for each scan. Each dynamic PET imaging scan lasted for 60 min and followed by a 10-min of computed tomography (CT) scan. The PET/CT imaging analysis was then performed by dynamic data collection and image reconstruction. The biodistribution of [^11C]1 in the whole-body of mice is initially studied. As depicted in Figure 2, four time-points (5, 10, 30, and 60 min) after [^11C]1 injection were selected to evaluate the uptake, biodistribution, and clearance of the radioligand in the organs of interests. […] In the heart, spleen, and lung, the uptakes of radioligand reached a peak sharply and followed by gradual wash-out post-injection.
(§1) The general procedure for rodent PET/CT studies was described previously ([Bai et al., 2019], [2020a]). Briefly, the PET/CT scan was carried out by a Triumph Trimodality/SPECT scanner (Gamma Medica, Northridge, CA, United States). Mice were arranged under anesthetized 2% isoflurane (Patterson Vet Supply, Inc., Greeley, CO, United States) in a carrier of 2 L/min medical oxygen during the imaging scanning. [^11C]1 (3.7–7.4 Mbq per animal, n = 2) was injected in mice via a lateral tail vein catheterization before PET acquisition. For the blocking study, the radioligand was administrated after CF53, or JQ1 was injected via a lateral tail vein catheterization 5-min before the start of PET acquisition. Dynamic PET acquisition lasted for 60 min followed by 10-min CT for anatomic co-registration. PET data were reconstructed using a 3D-MLEM method resulting in full width at a half-maximum resolution of 1 mm. These files were imported and analyzed using AMIDE ([Loening and Gambhir, 2003]) (a medical imaging data examiner) software (an open-source software, Los Angeles, CA, United States) and PMOD (PMOD 4.01, PMOD Technologies Ltd., Zurich, Switzerland).
(§2) Dynamic PET data were collected and the corresponding images were reconstructed by 3D-MLEM method resulting in full width at a half-maximum resolution of 1 mm. Volumes of interest (VOIs) were generated manually in forms of spheres under the guide of high-resolution CT structural images. TACs were exported as decay-corrected activity per unit volume. The TACs were expressed as percent injected dose per unit volume (%ID/cc) for analysis.

Data set [4] deals with BET proteins. Put plainly: PET/CT blocking studies in mice (specific binding). The format is in vivo. The settings on record: for radioactivity reduction in the whole-brain: based on TACs; for decrease of radioligand concentration in organs of interest: average over organs. As to the method: To evaluate the specific binding of [^11C]1, the blocking studies were carried out. Mice were pre-treated with unlabeled 1 (1.0 mg/kg) and JQ1 (1.0 mg/kg) at 5-min prior to the administration of [^11C]1. The PET/CT imaging and time-activity curves (TAC) of baseline and blocking studies are shown separately in Figure 3.
as §1, §2

The structures appear in SMILES notation. Where only a bound is given, the exact number is not on record here.

Turning to `COc1cc2c(cc1-c1c(C)noc1C)[nH]c1nc(C)nc(Nc3cc(C4CC4)nn3C)c12` [Compound 1], in data set [1] (binding affinity to BET BD1), the Ki is < 1 nM. Further, the equilibrium dissociation constant (Kd) in data set [1] (to BET BD1, printed in Figure 1) was 0.49 to 2.2 nM. The “selectivity over non-BET bromodomain-containing proteins” value in data set [2] is “high selectivity”.

As for `Cc1nc(Nc2cc(C3CC3)nn2C)c2c(n1)[nH]c1cc(-c3c(C)noc3C)c(O[11CH3])cc12` [[^11C]1], the “distribution in blood-rich organs” value in data set [3] (heart, liver and kidney, i.v. tail vein, 5-60 min post-injection) is listed as “highly distributed”. Further, the “time of max brain uptake” value in data set [3] (post-injection, whole brain) is ~2 min. The “brain-blood barrier (BBB) penetration” value in data set [3] (whole brain PET) is listed as “limited”. Besides, the max brain uptake in data set [3] (whole-brain analysis, i.v.) was found to be 0.9 % ID/cc. In addition, the “radioactivity reduction in the whole-brain” value in data set [4] (JQ1-blocking (1.0 mg/kg JQ1)) and in data set [4] (self-blocking (1.0 mg/kg CF53)) was ~50% each time. Further, the “decrease of radioligand concentration in organs of interest” value in data set [4] (JQ1-blocking: pre-treated with JQ1 (1.0 mg/kg) 5 min prior) and in data set [4] (self-blocking: pre-treated with unlabeled 1 (1.0 mg/kg) 5 min prior) was “over 40%” each time.

The Ki is the dissociation constant of the complex between target and ligand, obtained from inhibition or displacement. What is called Kd is the concentration at which binding is half-saturated.
